For three compounds, EC50 and inhibition results are on record in patent US12084422B2, “Phenyl-n-quinoline derivatives for treating a RNA virus infection” (ABIVAX, priority 2018, dated 2024).

Assay [1] relates to RSV A2. Kind of assay: Screening for RSV inhibition using Viral ToxGlo assay in HEp-2 cells. Format: cell-based. The conditions noted are these: human respiratory syncytial virus, HEp-2, 72 h. On the procedure:
Protocol for Screening Antiviral Compounds for RSV Inhibition and Cytotoxicity Using Viral ToxGlo Assay
HEp-2 cells were maintained in Eagle's minimum essential medium (EMEM) with Earle's BSS adjusted to contain 2 mM L-glutamine, 10% fetal bovine serum, 100 U/ml penicillin and 100 μg/ml streptomycin. For the purposes of the screening assay they were grown to 90% confluency, trypsinized and recovered. The trypsin was neutralised with cell culture media and cells were centrifuged at 150×g for 5 minutes before discarding the supernatant and resuspending cell pellet in assay media (EMEM with Earle's BSS adjusted to contain 2 mM L-glutamine, 2% fetal bovine serum and 100 U/ml penicillin and 100 μg/ml streptomycin). The cells were seeded into white clear-bottomed cell culture plates at a density of 1.5×10^4 cells/well in 50 μl and 4×10^3 cells/well in 25 μl for 96 well plates and 384 well plates respectively. For the media/background control column assay media only was added. Cell plates were placed in a humid chamber and incubated overnight at 37° C./5% CO2. After overnight incubation cells were checked for confluency and healthy appearance.
Test articles were made up at 10× test concentration in a maximum DMSO concentration of 10% (final assay concentration maximal 1% DMSO) and added to the cell plates in volumes of 10 μl for 96 well plates and 5 μl for 384 well plates. For cell control and virus control wells the test article solvent only was added. Virus or assay media for cytotoxicity test wells and media/cell control wells was added immediately after test articles at an MOI of 0.5, 40 or 20 μl for 96 and 384 well plates respectively. Virus suspension was prepared by thawing RSV A2 frozen stocks and diluting to the required concentration of plaque forming units in assay media on ice.
Cell plates were further incubated inside a humid chamber for 72 h p.i at 37° C./5% CO2. After the incubation period cells were observed under the microscope to check for characteristic cytopathic effect in virus control wells and healthy cells in the cell control wells. After plates were adjusted to room temperature 20/40 μl Viral ToxGlo (Promega) was added to each well of the 384/96 well cell plates. Plates were incubated at room temperature, protected from light on a plate rocker for 20 minutes before measuring the luminescence on a spectrophotometer (Biotek Synergy HTX).
RSV inhibition was calculated as percentage of cytopathic effect inhibition relative to the virus control and cytotoxicity as percentage of cell survival relative to cell control wells. This allowed EC50 values to be calculated for each test article where a virus inhibition or cytotoxic dose response was identified. EC50 values ranging between 0.001 µM and 5 μM could thus be determined for compounds 1, 6, 10, 13, 28, 38, 43, 47, 48, 49, 50, 51, 52, 53, 54, 55, 56 and 57.

Assay [2] deals with DENV-2 strain 16681. Kind of assay: Screening for DENV-2 inhibition using Viral ToxGlo assay in A549 cells. Format: cell-based, Dengue 2 virus. The following applies: Dengue virus, DENV2, A549, 120 h, read-out: % DENV-2 Inhibition Mean (n = 3). On the procedure:
Protocol for Screening Antiviral Compounds for DENV-2 Inhibition and Cytotoxicity Using Viral ToxGlo Assay
A549 cells were maintained in Dulbecco's Modified Eagle Medium (DMEM) supplemented with 10% fetal bovine serum, 100 U/ml penicillin and 100 μg/ml streptomycin. For the purposes of the screening assay they were grown to 90% confluency, trypsinized and recovered. The trypsin was neutralised with cell culture media and cells were centrifuged at 150×g for 5 minutes before discarding the supernatant and resuspending cell pellet in assay media (DMEM supplemented with 2% fetal bovine serum and 100 U/ml penicillin and 100 μg/ml streptomycin). The cells were seeded into 96-well white clear-bottomed cell culture plates at a density of 1.0×10^4 cells/well in 50 μl. For the media/background control column assay media only was added. Cell plates were placed in a humid chamber and incubated overnight at 37° C./5% CO2. After overnight incubation cells were checked for confluency and healthy appearance.
Test compounds were prepared at a final concentration of 10 μM, in a maximum DMSO concentration of 1% (final assay concentration maximal 0.1% DMSO) and added to the cell plates in volumes of 10 μl. For cell control and virus control wells the test article solvent only was added. As a positive inhibition control, 7-Deaza-2′-C-methyladenosine was added at 100 μM in 3 wells. Virus (DENV-2 strain 16681) or assay media for cytotoxicity test wells and media/cell control wells was added immediately after test articles at an MOI of 0.5, 40 for 96 well plates respectively. Virus suspension was prepared by thawing DENV-2 frozen stocks and diluting to the required concentration of plaque forming units in assay media.
Cell plates were further incubated inside a humid chamber for 5 days p.i at 37° C./5% CO2. After the incubation period cells were observed under the microscope to check for characteristic cytopathic effect in virus control wells and healthy cells in the cell control wells. After plates were adjusted to room temperature 20 μl Viral ToxGlo (Promega) was added to each well of the 96-well cell plates. Plates were incubated at room temperature for 5 minutes before measuring the luminescence on a spectrophotometer (Envision, PerkinElmer).
DENV-2 inhibition was calculated as percentage of cytopathic effect inhibition relative to the virus control and cytotoxicity as percentage of cell survival relative to cell control wells.

As a reminder, the EC50 is the concentration needed to bring the measured effect to its halfway point. In general, inhibition refers to the drop in the measured response relative to a control, in per cent. Consider `Cc1cc(Oc2ccccc2)ccc1Nc1ccc2cccc(Cl)c2n1` [Compound 56, 8-chloro-N-(2-methyl-4-phenoxyphenyl)quinolin-2-amine 2,2,2-trifluoroacetate], for which the half-maximal effective concentration (EC50) in assay [1] amounted to 132 nM. For the same compound, the inhibition at 10 µM in assay [2] was 76%.

On to `Cc1cc(Oc2cccc3ccccc23)ccc1Nc1ccc2cccc(Cl)c2n1` [Compound 54, 8-chloro-N-(2-methyl-4-(naphthalen-1-yloxy)phenyl)quinolin-2-amine], for which, in assay [1], the EC50 stood at 94 nM. Also, the inhibition at 10 µM in assay [2] came to 69%.

Consider `Cc1cc(OCc2ccccc2)ccc1Nc1ccc2cccc(Cl)c2n1` [Compound 47, N-(4-(benzyloxy)-2-methylphenyl)-8-chloroquinolin-2-amine], for which the EC50 in assay [1] came out at 420 nM. Also, the inhibition at 10 µM in assay [2] amounted to 82%.
